Common to all, as to assay type: cell-based
In data set [1] the target is T1, ATP-dependent translocase ABCB1 (Homo sapiens, UniProt P08183). The experiment in a line: Inhibition of human MDR1-mediated rhodamine efflux in mouse L5178 cells assessed as mean fluorescence intensity at 4 ug/mL by flow cytometry.
Data set [2] concerns the target T1, ATP-dependent translocase ABCB1. The experiment in a line: Inhibition of human MDR1-mediated rhodamine efflux in mouse L5178 cells assessed as mean fluorescence intensity at 40 ug/mL by flow cytometry.
Data set [3] has the same target. The experiment in a line: Inhibition of human MDR1-mediated rhodamine efflux in mouse L5178 cells assessed as fluorescence activity ratio at 4 ug/mL by flow cytometry relative to untreated control.
The target is the same in data set [4]. The experiment in a line: Inhibition of human MDR1-mediated rhodamine efflux in mouse L5178 cells assessed as fluorescence activity ratio at 40 ug/mL by flow cytometry relative to untreated control.

T1 sequence (P08183 whole entry): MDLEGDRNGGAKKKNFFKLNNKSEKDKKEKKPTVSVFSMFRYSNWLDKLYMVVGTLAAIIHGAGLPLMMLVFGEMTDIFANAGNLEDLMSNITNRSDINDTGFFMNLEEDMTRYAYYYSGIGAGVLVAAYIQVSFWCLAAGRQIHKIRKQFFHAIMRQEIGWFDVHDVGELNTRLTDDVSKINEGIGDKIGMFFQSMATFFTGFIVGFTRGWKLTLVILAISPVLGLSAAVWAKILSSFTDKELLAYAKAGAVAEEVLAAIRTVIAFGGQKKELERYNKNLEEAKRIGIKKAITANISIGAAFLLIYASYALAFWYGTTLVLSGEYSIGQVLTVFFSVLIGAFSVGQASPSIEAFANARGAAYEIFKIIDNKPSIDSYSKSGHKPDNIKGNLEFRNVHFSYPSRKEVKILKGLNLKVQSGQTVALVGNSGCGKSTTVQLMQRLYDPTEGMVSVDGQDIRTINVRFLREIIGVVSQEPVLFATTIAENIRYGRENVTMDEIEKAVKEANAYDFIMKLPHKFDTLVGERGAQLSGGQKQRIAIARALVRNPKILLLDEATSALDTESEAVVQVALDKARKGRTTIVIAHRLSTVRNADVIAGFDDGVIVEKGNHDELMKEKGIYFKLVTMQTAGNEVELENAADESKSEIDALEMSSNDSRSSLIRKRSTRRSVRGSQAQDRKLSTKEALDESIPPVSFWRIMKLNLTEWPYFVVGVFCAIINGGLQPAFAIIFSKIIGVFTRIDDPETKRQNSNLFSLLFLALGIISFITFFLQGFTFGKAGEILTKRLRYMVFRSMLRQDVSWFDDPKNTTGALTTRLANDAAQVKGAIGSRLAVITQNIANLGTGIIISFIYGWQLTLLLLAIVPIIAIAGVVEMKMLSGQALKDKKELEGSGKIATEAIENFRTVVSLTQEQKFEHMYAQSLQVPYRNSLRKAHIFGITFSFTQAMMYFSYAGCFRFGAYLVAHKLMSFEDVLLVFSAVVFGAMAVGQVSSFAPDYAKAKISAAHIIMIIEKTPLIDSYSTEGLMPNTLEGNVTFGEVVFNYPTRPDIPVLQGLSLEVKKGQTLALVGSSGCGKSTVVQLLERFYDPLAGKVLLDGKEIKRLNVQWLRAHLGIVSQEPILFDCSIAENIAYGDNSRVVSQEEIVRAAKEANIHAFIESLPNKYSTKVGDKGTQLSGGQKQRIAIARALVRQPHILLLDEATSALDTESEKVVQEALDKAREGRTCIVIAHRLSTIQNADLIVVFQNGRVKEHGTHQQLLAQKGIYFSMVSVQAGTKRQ

With `CC(=O)OC1[C@]2(O)CC3=C([C@H](OC(C)=O)C(C)(C)C3=O)[C@@]1(C)[C@@H](OC(C)=O)[C@@]1(O)C[C@H](C)[C@H](OC(=O)c3ccccc3)[C@@H]1[C@H]2OC(C)=O` (stereo partly drawn) [EUPHOPORTLANDOL A], the Flu intensity in data set [1] worked out at 49.8; in data set [2] it was 880.2. In addition, the Ratio turned out to be 2.3 in data set [3] and 40.3 in data set [4].

On to `CC(=O)OC1[C@@]2(C)[C@@H]3[C@@H](C[C@]1(O)[C@H](OC(C)=O)[C@H]1[C@@H](OC(=O)c4ccccc4)[C@@H](C)C[C@]1(O)[C@@H]2OC(C)=O)C(=O)C(C)(C)[C@H]3OC(C)=O` (stereo partly drawn) [EUPHOPORTLANDOL B], for which the figures for the Flu intensity in data set [1] and in data set [2] were 30.8 and 670.5, respectively. For the same compound, the Ratio is on record as 1.4 in data set [3] and 30.7 in data set [4].
